Results from ChEMBL document CHEMBL6178002, “Identification of a RANKL/TNF-α Dual-Inhibitor as a Potential Disease-Modifying Agent for the Treatment of Knee Osteoarthritis” (J Med Chem, 2025).
Activity calls are given as the source filed them. The rule behind the calls is not given here.

Legend:
[1] = organism: Rattus norvegicus; assay: Anti-inflammatory activity in male Sprague-Dawley rat model of ACLT-induced osteoarthritis assessed as increase in BMD level at 50 to 100 ug, IART treated weekly once for 8 weeks by micro-CT analysis; format: functional, organism-based; details: dose 50-100 µg
[2] = Tmax in male Sprague-Dawley rat at 10 mg/kg, po measured for 0.25 to 24 hrs; format: ADME, organism-based; details: in vivo, time 0.25-24 hrs
[3] = system: Bone marrow macrophage; assay: Inhibition of RANKL/M-CSF-induced osteoclastogenesis in bone marrow macrophage cells (unknown origin) assessed as decrease in c-Fos level at 1 uM by Western blot analysis; format: functional, cell-based; details: time <= 5.0 day
[4] = system: Bone marrow macrophage; assay: Inhibition of RANKL/M-CSF-induced osteoclastogenesis in bone marrow macrophage cells (unknown origin) assessed as decrease in c-Fos level incubated for 48 hrs by Western blot analysis; format: functional, cell-based; details: dose <= 2.5 µM
[5] = system: Bone marrow macrophage; assay: Inhibition of RANKL/M-CSF-induced osteoclastogenesis in bone marrow macrophage cells (unknown origin) assessed as decrease in NFATC1 mRNA level at 1 uM by RT-qPCR analysis; format: functional, cell-based; details: time <= 5.0 day
[6] = Oral bioavailability in male Sprague-Dawley rat at 1 mg/kg, iv measured for 0.25 to 24 hrs; format: ADME, organism-based; details: in vivo, time 0.25-24 hrs
[7] = system: Bone marrow macrophage; assay: Inhibition of RANKL/M-CSF-induced osteoclastogenesis in bone marrow macrophage cells (unknown origin) assessed as decrease in cathepsin K level at 1 uM by Western blot analysis; format: functional, cell-based; details: time <= 5.0 day
[8] = Clearance in male Sprague-Dawley rat at 1 mg/kg, iv measured for 0.25 to 24 hrs; format: ADME, organism-based; details: in vivo, time 0.25-24 hrs
[9] = organism: Rattus norvegicus; assay: Anti-inflammatory activity in male Sprague-Dawley rat model of ACLT-induced osteoarthritis assessed as reduction in OA-induced pain at 50 to 100 ug, IART treated weekly once for 8 weeks by hot-plate test; format: functional, organism-based; details: dose 50-100 µg
[10] = organism: Rattus norvegicus; assay: Anti-inflammatory activity in male Sprague-Dawley rat model of ACLT-induced osteoarthritis assessed as increase in BV/TV level at 50 to 100 ug, IART treated weekly once for 8 weeks by micro-CT analysis; format: functional, organism-based; details: dose 50-100 µg
[11] = system: Bone marrow macrophage; assay: Inhibition of RANKL/M-CSF-induced osteoclastogenesis in bone marrow macrophage cells (unknown origin) assessed as decrease in c-Fos mRNA level incubated for 48 hrs by RT-qPCR analysis; format: functional, cell-based; details: dose <= 5.0 µM
[12] = system: Bone marrow macrophage; assay: Inhibition of RANKL/M-CSF-induced osteoclastogenesis in bone marrow macrophage cells (unknown origin) assessed as decrease in MMP-9 level at 1 uM by Western blot analysis; format: functional, cell-based; details: time <= 5.0 day
[13] = Half life in male Sprague-Dawley rat at 10 mg/kg, po measured for 0.25 to 24 hrs; format: ADME, organism-based; details: in vivo, time 0.25-24 hrs
[14] = system: Bone marrow cell; assay: Inhibition of RANKL/M-CSF-induced osteoclastogenesis in male C57/BL6 mouse bone marrow cells at 1 uM by TRAP staining based analysis; format: functional; details: time 1-7 day
[15] = system: Bone marrow macrophage; assay: Inhibition of RANKL/M-CSF-induced osteoclastogenesis in bone marrow macrophage cells (unknown origin) assessed as decrease in NFATC1 level incubated for 48 hrs by Western blot analysis; format: functional, cell-based; details: dose <= 2.5 µM
[16] = system: RAW264.7; assay: Anti-inflammatory activity in LPS-stimulated mouse RAW264.7 cells assessed as decrease in IL-6 level at 10 uM preincubated for 24 hrs followed by LPS addition measured after 2 hrs by RT-qPCR analysis; format: functional, cell-based; details: time 26.0 hrs
[17] = AUC (0 to t) in male Sprague-Dawley rat at 10 mg/kg, po measured for 0.25 to 24 hrs; format: ADME, organism-based; details: in vivo, time 0.25-24 hrs
[18] = system: RAW264.7; assay: Inhibition of NFkappaB activation in mouse RAW264.7 cells assessed as reduction in TNF-alpha-induced NF-kappaB p65 phosphorylation at 10 uM preincubated for 12 hrs followed by TNF-alpha addition measured after 2 hrs by immunofluorescence based analysis; format: cell-based; details: time 14.0 hrs
[19] = system: Bone marrow macrophage; assay: Inhibition of RANKL/M-CSF-induced osteoclastogenesis in bone marrow macrophage cells (unknown origin) assessed as decrease in cathepsin K level incubated for 48 hrs by Western blot analysis; format: functional, cell-based; details: dose <= 2.5 µM
[20] = Cmax in male Sprague-Dawley rat at 10 mg/kg, po measured for 0.25 to 24 hrs; format: ADME, organism-based; details: in vivo, time 0.25-24 hrs
[21] = system: Bone marrow cell; assay: Inhibition of RANKL/M-CSF-induced osteoclastogenesis in male C57/BL6 mouse bone marrow cells assessed as decrease in F-actin loop formation incubated for 5 to 7 days by rhodamine phalloidin/DAPI staining based analysis; format: functional; details: dose <= 1.0 µM, time 5-7 day
[22] = system: Primary chondrocyte; assay: Anti-inflammatory activity in IL-1beta-treated C57/BL6 mouse primary chondrocytes assessed as decrease in MMP-13 mRNA level at 10 uM incubated for 24 hrs by RT-qPCR analysis; format: functional, cell-based
[23] = organism: Rattus norvegicus; assay: Anti-inflammatory activity in male Sprague-Dawley rat model of ACLT-induced osteoarthritis assessed as reduction in OARSI score at 50 to 100 ug, IART treated weekly once for 8 weeks; format: functional, organism-based; details: dose 50-100 µg
[24] = system: Primary chondrocyte; assay: Anti-inflammatory activity in IL-1beta-treated C57/BL6 mouse primary chondrocytes assessed as increase in collagen II mRNA level at 10 uM incubated for 24 hrs by RT-qPCR analysis; format: functional, cell-based
[25] = organism: Rattus norvegicus; assay: Anti-inflammatory activity in male Sprague-Dawley rat model of ACLT-induced osteoarthritis assessed as increase in Tb.N level at 50 to 100 ug, IART treated weekly once for 8 weeks by micro-CT analysis; format: functional, organism-based; details: dose 50-100 µg
[26] = system: Primary chondrocyte; assay: Anti-inflammatory activity in IL-1beta-treated C57/BL6 mouse primary chondrocytes assessed as decrease in MMP-9 mRNA level at 10 uM incubated for 24 hrs by RT-qPCR analysis; format: functional, cell-based
[27] = AUC (0 to t) in male Sprague-Dawley rat at 1 mg/kg, iv measured for 0.25 to 24 hrs; format: ADME, organism-based; details: in vivo, time 0.25-24 hrs
[28] = Cytotoxicity against bone marrow macrophage cells (unknown origin) assessed as cell viability at 10 uM incubated for 24 hrs by CCK8 assay relative to control; format: toxicity, cell-based; details: read-out: Activity
[29] = system: Bone marrow macrophage; assay: Inhibition of RANKL/M-CSF-induced osteoclastogenesis in bone marrow macrophage cells (unknown origin) assessed as decrease in TRAP mRNA level incubated for 48 hrs by RT-qPCR analysis; format: functional, cell-based; details: dose <= 5.0 µM
[30] = system: Bone marrow macrophage; assay: Inhibition of RANKL/M-CSF-induced osteoclastogenesis in bone marrow macrophage cells (unknown origin) assessed as decrease in NFATC1 level at 1 uM by Western blot analysis; format: functional, cell-based; details: time <= 5.0 day
[31] = system: RAW264.7; assay: Anti-inflammatory activity in LPS-stimulated mouse RAW264.7 cells assessed as decrease in TNF-alpha level at 10 uM preincubated for 24 hrs followed by LPS addition measured after 2 hrs by RT-qPCR analysis; format: functional, cell-based; details: time 26.0 hrs
[32] = system: Bone marrow cell; assay: (§1) Inhibition of RANKL/M-CSF-induced osteoclastogenesis in male C57/BL6 mouse bone marrow cells incubated for 5 to 7 days by TRAP staining based analysis; format: functional; details: dose <= 5.0 µM, time 5-7 day
[33] = as §1; format: functional; details: bone marrow cell
[34] = Inhibition of RANKL/M-CSF-induced osteoclastogenesis in male C57/BL6 mouse bone marrow cells at 1 uM incubated for 5 to 7 days by TRAP staining based analysis relative to control; format: functional; details: C57/BL6, Bone marrow cell, time 5-7 day
[35] = system: Bone marrow macrophage; assay: Inhibition of RANKL/M-CSF-induced osteoclastogenesis in bone marrow macrophage cells (unknown origin) assessed as decrease in TRAP mRNA level at 1 uM by RT-qPCR analysis; format: functional, cell-based; details: time <= 5.0 day

Cc1cccc(C)c1NC(=O)[C@@H]1Cc2c([nH]c3ccccc23)C2(CN(c3ccccc3)C2)N1
Activity [1]: Active
Tmax [2]: 0.5 h
inhibition [3]: Time-dependent-effect
inhibition [4]: Dose-dependent-effect
inhibition [5]: Time-dependent-effect
bioavailability [6]: 71.4%
inhibition [7]: Time-dependent-effect
clearance [8]: 71.7 mL/min/kg
Activity [9]: Active
Activity [10]: Active
inhibition [11]: Dose-dependent-effect
inhibition [12]: Time-dependent-effect
half-life [13]: 5.07 h
inhibition [14]: Time-dependent-effect
inhibition [15]: Dose-dependent-effect
Activity [16]: Active
AUC(0-t) [17]: 1620 ng·h/mL
inhibition [18]: Active
inhibition [19]: Dose-dependent-effect
Cmax [20]: 780 ng/mL
inhibition [21]: Dose-dependent-effect
Activity [22]: Active
Activity [23]: Active
Activity [24]: Active
Activity [25]: Active
Activity [26]: Active
AUC(0-t) [27]: 227 ng·h/mL
viability at 24 h, 10 µM [28]: 110%
inhibition [29]: Dose-dependent-effect
inhibition [30]: Time-dependent-effect
Activity [31]: Active
inhibition [32]: Dose-dependent-effect
IC50 [33]: 109 nM
inhibition at 1 µM [34]: 98.6%
inhibition [35]: Time-dependent-effect
